{
  "source": "patent US20120065181A1",
  "about": "“METHOD OF PROVIDING NEUROPROTECTION USING SUBSTITUTED PORPHYRINS” (priority 2009, published 2012)",
  "key": {"[1]": {"tested_on": "TNF-α", "experiment": "Cerebral TNF-α level by ELISA after MCAO", "format": "in vivo, rat", "conditions": "225 μg/kg IV 5 min after reperfusion, s.c. at 12 and 18 hrs post-MCAO; brains harvested 24 hrs post-MCAO; n=3; P=0.04", "description": "(§1) Rats were subjected to 90 min middle cerebral artery occlusion. Five min after onset of reperfusion, rats were randomly treated with vehicle (n=3) or 225 μg/kg IV MnTnHex-2-PyP^5+ (n=3) followed by subcutaneous vehicle or 225 μg/kg MnTnHex-2-PyP^5+, respectively, at 12 and 18 hrs post-MCAO. Brains were harvested at 24 hrs post-MCAO and analyzed for TNF-α and IL-6 by fluorescent enzyme-linked immunosorbent assay. Whole cell lysates from the whole brain tissue were obtained at the end of each experiment according to manufacture's protocol (Roche) with light modification. In brief, about 100 mg of brain tissue, which was diced into small pieces using a clean razor blade on ice, was placed into a pre-chilled microcentrifuge tube and further processed with […] of ice-cold lysis buffer (50 mM Tris-HCl, pH 7.5, 150 mM NaCl, 1% Nonidet P40, 0.5% sodium deoxycholat, 0.1% SDS, protease inhibitors). Samples were homogenized 10 seconds and incubated for 30 minutes on ice. Homogenates were centrifuged at 14,000 g for 10 minutes at 4° C. Supernatants were collected and proteins were measured by a BCA Protein Assay Kit (Thermo Scientific). Cerebral levels of TNF-α and IL-6 were determined by rat specific ELISA kits (Thermo Scientific, IL) and normalized by the total amount of proteins (pg/mg)."}, "[2]": {"tested_on": "NF-κB p65", "experiment": "Immunoblot of nuclear samples with NF-κB p65-specific antibody after MCAO", "format": "in vivo, rat", "conditions": "225 μg/kg IV after 90 min MCAO; ischemic brain harvested six hr later", "description": "(§2) Intravenous MnTnHex-2-PyP^5+ (hexyl) decreases post-ischemic NF-κB DNA binding to a κB consensus oligo due inhibition of NF-κB p65 nuclear translocation. Data are from 4 rats subjected to 90 min MCAO and then treated with vehicle or MnTnHex-2-PyP^5+ (225 μg/kg IV). Six hr later, ischemic brain was harvested for EMSA performed on nuclear extracts ([…]). Upper gel (EMSA): D and E (without and with p65 antibody, respectively) are rat #1 (vehicle). F and G (without and with p65 antibody, respectively) are rat #2 (hexyl). H and I=vehicle rat #3 (with and without p65). J and K=rat #4 (hexyl) with and without p65. A-C are control lanes (A=probe only, B=positive control (HeLa nuclear extract), C=cold competitor). Two slower migrating DNA binding complexes are observed (shift). The proteins in the slower migrating complexes were identified by super shift analysis with […] of p65-specific antibody. […] Lower gel: […]) from the same nuclear samples were immunoblotted with NF-κB p65-specific antibody, confirming NF-κB inhibition by MnTnHex-2-PyP^5+."}, "[3]": {"tested_on": "subarachnoid hemorrhage (SAH) in mice", "experiment": "Neurologic evaluation after murine subarachnoid hemorrhage (endovascular perforation)", "format": "in vivo", "text": "At completion of the predefined recovery interval, rats underwent a neurologic examination to evaluate sensorimotor function. The neurological scoring system evaluates four different functions (general status, simple motor deficit, complex motor deficit, and sensory deficit). The score given to each animal (by an observer blinded to group assignment) was the sum of all four individual scores, 0 being the minimum (best) score and 48 being the maximum (worst) score. This examination was developed combining features from several neurologic evaluations reported for rat MCAO and has been used in two long-term MCAO outcome studies to assess for differences in treatment outcome (Yokoo et al. Anesth Analg. 2004; 99:896-903; Sakai et al. Anesthesiology. 2007; 106:92-99; discussion 98-10.) Values from this scoring system correlate well with total infarct volume in rats allowed to survive 8 weeks post-MCAO (R2 value of 0.78, P=0.006, Sakai et al.) as well as 2 and 8 weeks post-MCAO (Yokoo et al.). […]\nSeventy-two hrs post-SAH, mice were neurologically evaluated as described above, with the experimenter blinded to group assignment. Normal neurologic function was scored as 0 with the maximal deficit score=48. […]"}, "[4]": {"tested_on": "rats subjected to 90 min MCAO", "experiment": "Neurologic score after 90 min middle cerebral artery occlusion (MCAO)", "format": "in vivo, rat", "conditions": "then twice daily s.c. for 7 days", "text": "(§3) Male Wistar rats (250-275 gm; Harlan Sprague Dawley, Inc. Indianapolis, Ind.) were anesthetized with 64-mg/kg intraperitoneal sodium pentobarbital and positioned in a stereotactic head frame. The skin was infiltrated with 1.0% lidocaine and a midline scalp incision was made. A burr hole was drilled over the left hemisphere, 7.2 mm anterior to the interauralline and 1.4 mm lateral to the sagittal suture. An intracerebroventricular (ICV) cannula (33 gauge) was positioned with the tip in the left lateral ventricle and fixed in place with screws and cyanoacrylate. The incision was closed with suture around this assembly. After emergence from anesthesia, the animals were returned to their cages with free access to water and food.\nFollowing 2-3 days recovery, rats were allowed access to water but fasted from food for 12 hours to standardize glycemic state. Rats were then anesthetized with isoflurane in O2. Following tracheal intubation, the lungs were mechanically ventilated to maintain normocapnia. A 22-g needle thermistor was percutaneously placed adjacent to the skull beneath the temporalis. Pericranial temperature was servoregulated at 37.5±0.1° C. by surface heating or cooling. […]\nRats were subjected to 90 min middle cerebral artery occlusion. […] The doses were repeatedly twice daily as subcutaneous injections for 7 days after which neurologic function was assessed as described above. […]"}, "[5]": {"tested_on": "rats subjected to 90 min MCAO", "experiment": "Cerebral infarct volume after 90 min MCAO", "format": "in vivo, rat", "conditions": "7 days after MCAO", "text": "as §3\nFollowing 2-3 days recovery, rats were allowed access to water but fasted from food for 12 hours to standardize glycemic state. Rats were then anesthetized with isoflurane in O2. Following tracheal intubation, the lungs were mechanically ventilated to maintain normocapnia. A 22-g needle thermistor was percutaneously placed adjacent to the skull beneath the temporalis. Pericranial temperature was servoregulated at 37.5±0.1° C. by surface heating or cooling. The inspired isoflurane concentration was adjusted to 1.0-1.5% in 50% O2/balance N2. The tail artery was cannulated. The animals were then prepared for MCAO as previously described [Mackensen et al. J. Neurosci. 21:4582-4592, 2001; Longa et al. Stroke 20:84-91, 1989]. A midline cervical incision was made and the right common carotid artery was identified. […] The internal carotid artery (ICA) was dissected distally until the origin of the pterygopalatine artery was visualized. Following surgical preparation, a 20 min interval was allowed for physiologic stabilization.\nFive min before MCAO onset, heparin (50 IU intra-arterial) was given to prevent intra-arterial thrombosis. A 0.25-mm diameter nylon monofilament, prepared with a silicone tip, was inserted into the ECA stump and passed distally through the ICA (20 mm from carotid bifurcation) until resistance was felt and the filament was secured. At MCAO onset, isoflurane was reduced to 0.8-1.0%.\nAfter 90 min of MCAO, the occlusive filament was removed. The anesthetic state and pericranial temperature regulation were continued for an additional 100 min. The tail artery catheter was removed and the wounds were closed with suture. Isoflurane was discontinued. Upon recovery of the righting reflex, the tracheas were extubated and the animals were placed in an O2 enriched environment (FIO2=50%) for 1 hour. Animals were then randomized to experimental groups (see below).\nAnimals were weighed, anesthetized with isoflurane, and decapitated. The brains were removed, frozen at −40° C. in 2-methylbutane, and stored at −70° C. Infarct volume was measured by comparing the volume of histologically normal tissue observed in the ischemic hemisphere to the expected volume of normal tissue as derived from measurements of the contralateral, non-ischemic hemisphere [Swanson et al. J. Cereb. Blood Flow Metab. 10:290-293, 1990]. Serial quadruplicate […] coronal sections were taken using a cryotome at […] over the rostral-caudal extent of the infarct. The sections were dried and stained with hematoxylin and eosin. A section from each 660-μm interval was digitized with a video camera controlled by an image analyzer. […] With the observer blinded to experimental condition, the following regions of interest (ROI) were cursor outlined: non-infarcted ipsilateral cerebral cortex, non-infarcted ipsilateral subcortex, contralateral cerebral cortex, and contralateral subcortex. The area within each ROI (mm2) was determined by automated counting of calibrated pixels. Ipsilateral non-infarcted cortex and subcortex areas were subtracted from the corresponding contralateral ROI values to estimate the area of ischemic tissue damage to control for brain edema [Lin et al. Stroke 24:117-121, 1993]. […]"}, "[6]": {"tested_on": "NF-κB", "experiment": "EMSA of NF-κB DNA binding in nuclear extracts of ischemic brain after MCAO", "format": "in vivo, rat", "conditions": "225 μg/kg IV after 90 min MCAO, ischemic brain harvested six hr later, 2 treated vs 2 vehicle rats", "description": "as §2"}, "[7]": {"tested_on": "cerebral arteries of mice post-SAH", "experiment": "Arterial cross-sectional diameter by intraluminal arterial casting after murine SAH", "format": "in vivo", "conditions": "72 hrs post-SAH", "description": "Male mice (body weight=20-25 gm) were anesthetized with isoflurane and subjected to endovascular perforation of the right anterior cerebral artery just distal to the middle cerebral artery bifurcation. Mice were allowed to recover from anesthesia and randomly assigned to treatment ([…] MnTnHex-2-PyP^5+ twice per day, i.p. with treatment begun 60 min post-SAH, n=15) and vehicle (saline 0.1 ml twice a day, n=15) groups.\nThe mice were anesthetized and subjected to intraluminal arterial casting for later determination of arterial cross-sectional diameter. Subarachnoid clot size was graded using a standardized scoring system.\nThree mice died in the vehicle group (2 died 3 days post-SAH, 1 died 2 days post-SAH). Neurologic scores in surviving mice and clot size were compared with the Mann-Whitney U statistic. Vessel diameters were compared with the Student's t test."}, "[8]": {"tested_on": "IL-6", "experiment": "Cerebral IL-6 level by ELISA after MCAO", "format": "in vivo, rat", "conditions": "225 μg/kg IV 5 min after reperfusion, s.c. at 12 and 18 hrs post-MCAO; brains harvested 24 hrs post-MCAO; n=3; P=0.04", "description": "as §1"}},
  "data": [
    {"smiles": "CCCCCC[n+]1ccccc1-c1c2nc(c(-c3cccc[n+]3CCCCCC)c3ccc([n-]3)c(-c3cccc[n+]3CCCCCC)c3nc(c(-c4cccc[n+]4CCCCCC)c4ccc1[n-]4)C=C3)C=C2.[Mn+3]", "note": "[MnTnHex-2-PyP^5+, Mn(III) 5,10,15,20-tetrakis(N-n-hexylpyridinium-2-yl)porphyrin]", "values": [
      {"measurement": "TNF-α concentration in brain", "setting": "[1]", "result": "decreased"},
      {"measurement": "NF-κB p65 nuclear translocation (immunoblot of nuclear samples)", "setting": "[2]", "result": "inhibition"},
      {"measurement": "neuroscore (median±interquartile range)", "setting": "[3]; 72 hrs post-SAH, 225 mg/kg twice per day i.p. begun 60 min post-SAH, n=14, 0=no deficit, maximal deficit 48, P=0.02 vs vehicle (14±21)", "result": "2.5±9"},
      {"measurement": "deaths in treatment group", "setting": "[3]; murine SAH, 225 mg/kg twice per day i.p., n=15, three mice died in vehicle group", "result": "One mouse in the MnTnHex-2-PyP^5+ group died at 2 days post-SAH"},
      {"measurement": "Neurologic score", "setting": "[4]; 225 μg/kg i.v. 5 min after reperfusion onset, P=0.002 vs vehicle", "result": "improved"},
      {"measurement": "Neurologic score", "setting": "[4]; 225 μg/kg intra-arterial plus s.c. 6 hours after reperfusion onset, P=0.04 vs vehicle", "result": "improved"},
      {"measurement": "cerebral infarct volume in the subcortex", "setting": "[5]; 225 μg/kg i.v. 5 min after reperfusion onset, then twice a day s.c., P=0.01", "result": "reduced"},
      {"measurement": "reduction in total infarct volume", "setting": "[5]; 225 μg/kg i.v. 5 min after reperfusion onset, then twice a day s.c., P=0.028", "result": 32, "unit": "%"},
      {"measurement": "cerebral infarct volume in the cortex", "setting": "[5]; 225 μg/kg i.v. 5 min after reperfusion onset, then twice a day s.c., P=0.05", "result": "reduced"},
      {"measurement": "cerebral infarct volume in the cortex", "setting": "[5]; 225 μg/kg intra-arterial plus s.c. 6 hrs after reperfusion onset, then twice daily s.c., P=0.01", "result": "reduced"},
      {"measurement": "reduction in total infarct volume", "setting": "[5]; 225 μg/kg intra-arterial plus s.c. 6 hrs after reperfusion onset, then twice daily s.c., P=0.03", "result": 37, "unit": "%"},
      {"measurement": "Infarct size in the subcortex", "setting": "[5]; 225 μg/kg intra-arterial plus s.c. 6 hrs after reperfusion onset, then twice daily s.c., P=0.58", "result": "not changed"},
      {"measurement": "post-ischemic NF-κB DNA binding to a κB consensus oligo (EMSA)", "setting": "[6]", "result": "Marked reduction"},
      {"measurement": "right anterior cerebral artery diameter (mean±SD)", "setting": "[7]; vs vehicle 82±36 μm, P=0.0005", "result": "130±19", "unit": "μm"},
      {"measurement": "right middle cerebral artery diameter (mean±SD)", "setting": "[7]; vs vehicle 83±33 μm, P=0.0033", "result": "123±29", "unit": "μm"},
      {"measurement": "right internal carotid artery diameter (mean±SD)", "setting": "[7]; vs vehicle 109±35 μm, P=0.015", "result": "143±30", "unit": "μm"},
      {"measurement": "basilar artery diameter (mean±SD)", "setting": "[7]; vs vehicle 198±19 μm, P=0.723, no effect of treatment", "result": "200±17", "unit": "μm"},
      {"measurement": "IL-6 concentration in brain", "setting": "[8]", "result": "decreased"}
    ]}
  ]
}
